According to US20170087180A1, “METHODS AND COMPOSITIONS FOR TREATING NITRIC OXIDE DEFICIENCY DISORDERS AND RELATED CONDITIONS” (Sulfagenix, Inc., priority 2014, published 2017):

Tested on: men with oligoasthenozoospermia
Experiment: placebo-controlled randomized study of SG1002 compared to resveratrol in men with oligoasthenozoospermia
Assay type: in vivo
Settings: SG1002 500 mg daily, resveratrol 50 mg daily, 54 men
Protocol: There was one placebo-controlled randomized study of SG1002,500 mg daily compared to resveratrol 50 mg daily in 54 men with oligoasthenozoospermia. Men treated with SG1002 had increased sperm concentration, motility and motile forms recovery compared to those treated with placebo. Resveratrol had no effect on any of these parameters. During the study, three men in the SG1002 arm withdrew: one due to excessive flatulence and nausea, one due to “smelly” sweating, and one for convenience.

Oc1ccc(C=Cc2cc(O)cc(O)c2)cc1 [Resveratrol, resveratrol]
no effect: motile forms recovery | sperm concentration | sperm motility
